Here are results for one molecule from ChEMBL document CHEMBL4130471, “Design and synthesis of tranylcypromine derivatives as novel LSD1/HDACs dual inhibitors for cancer treatment” (Eur J Med Chem, 2017).

Calls of active or inactive are those of the source. No cut-off for these calls is given here.

By IC50 is commonly meant the midpoint of a concentration-inhibition curve.

Experiment [1] has as its system MGC-803. Put plainly: Induction of apoptosis in human MGC803 cells assessed as necrotic cells level at 5 uM incubated for 24 hrs by Annexin-V-FITC/propidium iodide staining based flow cytometry (reference value: 0.596%). Format: functional. In general terms: Flow cytometry measures light scatter and fluorescence of single cells or particles in a stream.
Experiment [2] concerns MCF7. Put plainly: cells. The settings on record: Homo sapiens, MCF7, 72 h. Format: functional, cell-based.
Description: Antiproliferative activity against human MCF7 cells incubated for 72 hrs by MTT assay
The test system of experiment [3] is MGC-803. Description: Induction of apoptosis in human MGC803 cells assessed as late apoptotic cells level at 2.5 uM incubated for 48 hrs by Annexin-V-FITC/propidium iodide staining based flow cytometry (reference value: 0.121%). Format: functional.
Experiment [4] deals with MGC-803. Description: Induction of apoptosis in human MGC803 cells assessed as early apoptotic cells level at 2.5 uM incubated for 48 hrs by Annexin-V-FITC/propidium iodide staining based flow cytometry (reference value: 7.35%). In kind it is functional.
Experiment [5] has as its system MGC-803. Put plainly: Induction of apoptosis in human MGC803 cells assessed as viable cells level at 7.5 uM incubated for 24 hrs by Annexin-V-FITC/propidium iodide staining based flow cytometry (reference value: 94.6%). In kind it is functional.
Experiment [6] has as its target Histone deacetylase (Homo sapiens) (UniProt Q13547+O15379+Q9UBN7+Q92769+Q9UQL6+Q8WUI4+Q9BY41+Q96DB2+P56524+Q9UKV0+Q969S8). Description: Inhibition of HDAC in human MGC803 cells assessed as increase in cellular histone H3 acetylation levels incubated for 24 hrs by Western blot. Format: cell-based. In general terms: A western blot detects proteins with antibodies after separation by electrophoresis.

Experiment [7] concerns MGC-803. Description: Induction of apoptosis in human MGC803 cells assessed as late apoptotic cells level at 7.5 uM incubated for 24 hrs by Annexin-V-FITC/propidium iodide staining based flow cytometry (reference value: 0.447%). Format: functional.
Experiment [8] has as its system MGC-803. Put plainly: Induction of mitochondrial membrane potential loss in human MGC803 cells assessed as FL2 red fluorescence level at 5 uM incubated for 48 hrs by JC1 staining based flow cytometry (reference value: 5.47%). In kind it is functional.
The test system of experiment [9] is MGC-803. Description: Induction of apoptosis in human MGC803 cells assessed as viable cells level at 2.5 uM incubated for 24 hrs by Annexin-V-FITC/propidium iodide staining based flow cytometry (reference value: 94.6%). In kind it is functional.
Experiment [10] concerns MGC-803. Description: Induction of apoptosis in human MGC803 cells assessed as necrotic cells level at 7.5 uM incubated for 24 hrs by Annexin-V-FITC/propidium iodide staining based flow cytometry (reference value: 0.596%). In kind it is functional.
Experiment [11] relates to MGC-803. Put plainly: Induction of apoptosis in human MGC803 cells assessed as viable cells level at 5 uM incubated for 48 hrs by Annexin-V-FITC/propidium iodide staining based flow cytometry (reference value: 92.3%). In kind it is functional.
Experiment [12] deals with MGC-803. Put plainly: Induction of apoptosis in human MGC803 cells assessed as late apoptotic cells level at 5 uM incubated for 48 hrs by Annexin-V-FITC/propidium iodide staining based flow cytometry (reference value: 0.121%). Format: functional.
The subject of experiment [13] is MGC-803. Put plainly: Induction of mitochondrial membrane potential loss in human MGC803 cells incubated for 48 hrs by JC1 staining based flow cytometry. In kind it is functional, cell-based.
The target of experiment [14] is T1, Lysine-specific histone demethylase 1A (Homo sapiens, UniProt O60341). Put plainly: Inhibition of LSD1 in human MGC803 cells assessed as increase in cellular H3K4me3 levels at 2 uM incubated for 24 hrs by Western blot. In kind it is cell-based.
For experiment [15], the target named is T1, Lysine-specific histone demethylase 1A.
Description: Inhibition of recombinant LSD1 (157 to 852 amino acids) (unknown origin) expressed in Escherichia coli BL21(DE) using H3K4me2 substrate by amplex red and horseradish peroxidase based fluorescence assay
Experiment [16] has as its target Histone deacetylase 5 (Homo sapiens, UniProt Q9UQL6). Put plainly: Inhibition of C-terminal His-tagged human HDAC5 (656-1122 residues) expressed in baculovirus expression system using Ac-peptide substrate incubated for 15 mins by fluorescence based assay. The settings on record: read-out: IC50.
Experiment [17] deals with SW-620. Description: cells. Format: functional, cell-based. The settings on record: Homo sapiens, SW-620, 72 h.
Description: Antiproliferative activity against human SW620 cells incubated for 72 hrs by MTT assay
Experiment [18] deals with T1, Lysine-specific histone demethylase 1A. This is another data set of the same source.
Experiment [19] concerns A549. Put plainly: cells. The settings on record: Homo sapiens, A549, 72 h. Format: functional, cell-based.
Description: Antiproliferative activity against human A549 cells incubated for 72 hrs by MTT assay
Experiment [20] relates to MGC-803. Put plainly: Induction of mitochondrial membrane potential loss in human MGC803 cells assessed as FL2 red fluorescence level at 2.5 uM incubated for 48 hrs by JC1 staining based flow cytometry (reference value: 5.47%). Format: functional.
For experiment [21], the system named is MGC-803. Description: Induction of apoptosis in human MGC803 cells assessed as early apoptotic cells level at 5 uM incubated for 24 hrs by Annexin-V-FITC/propidium iodide staining based flow cytometry (reference value: 4.37%). In kind it is functional.
The subject of experiment [22] is MGC-803. Description: Induction of apoptosis in human MGC803 cells assessed as early apoptotic cells level at 2.5 uM incubated for 24 hrs by Annexin-V-FITC/propidium iodide staining based flow cytometry (reference value: 4.37%). Format: functional.

Sequence of Histone deacetylase 5 (Q9UQL6 whole entry, the tested form may be a part): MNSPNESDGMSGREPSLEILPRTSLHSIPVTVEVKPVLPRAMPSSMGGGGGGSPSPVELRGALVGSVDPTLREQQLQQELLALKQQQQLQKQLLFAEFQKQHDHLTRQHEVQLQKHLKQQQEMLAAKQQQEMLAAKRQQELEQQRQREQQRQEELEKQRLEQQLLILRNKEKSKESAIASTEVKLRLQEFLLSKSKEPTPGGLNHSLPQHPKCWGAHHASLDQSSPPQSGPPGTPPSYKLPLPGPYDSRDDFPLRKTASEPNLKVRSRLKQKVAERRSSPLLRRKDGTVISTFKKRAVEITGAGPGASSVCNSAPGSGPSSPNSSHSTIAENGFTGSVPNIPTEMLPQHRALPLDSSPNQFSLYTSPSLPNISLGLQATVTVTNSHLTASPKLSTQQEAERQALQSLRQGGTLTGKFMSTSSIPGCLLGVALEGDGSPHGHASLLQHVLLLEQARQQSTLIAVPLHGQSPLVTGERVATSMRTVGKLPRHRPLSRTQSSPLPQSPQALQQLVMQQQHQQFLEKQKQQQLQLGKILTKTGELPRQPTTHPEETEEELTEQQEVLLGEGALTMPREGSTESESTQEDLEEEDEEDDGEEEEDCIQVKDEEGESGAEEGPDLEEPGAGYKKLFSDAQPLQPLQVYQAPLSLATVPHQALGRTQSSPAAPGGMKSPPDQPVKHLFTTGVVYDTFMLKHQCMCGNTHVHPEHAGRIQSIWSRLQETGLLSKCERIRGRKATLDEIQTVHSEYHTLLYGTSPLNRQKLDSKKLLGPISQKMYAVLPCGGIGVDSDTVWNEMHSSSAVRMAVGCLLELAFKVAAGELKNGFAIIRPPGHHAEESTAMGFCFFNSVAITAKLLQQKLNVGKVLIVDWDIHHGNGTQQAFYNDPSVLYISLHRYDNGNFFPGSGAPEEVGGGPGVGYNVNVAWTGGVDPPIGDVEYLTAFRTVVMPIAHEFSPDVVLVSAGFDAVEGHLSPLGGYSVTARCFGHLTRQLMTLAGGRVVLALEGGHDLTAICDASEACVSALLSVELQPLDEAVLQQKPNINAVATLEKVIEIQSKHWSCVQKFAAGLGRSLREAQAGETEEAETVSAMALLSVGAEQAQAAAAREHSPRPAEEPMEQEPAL

Regarding `O=C(CCCCCCNC(=O)c1ccc(CNC2(c3ccccc3)CC2)cc1)NO`, the Activity in experiment [1] was 2.82%; in [3], 35.2%; in experiment [4] it was 37.2%; in experiment [5] it was 54.7%; in experiment [7], 10.9%; in experiment [8], 83.5%. Moreover, the Activity in experiment [9] was 72%; in experiment [10] it was 2.71%; in [11] it was 11.9%; in experiment [12], 43.9%; in experiment [13], “Dose-dependent effect”; in experiment [20] it was 46.6%. Further, the Activity was found to be 26.2% in experiment [21] and 22.5% in [22]. In addition, the IC50 in experiment [2] was 4280 nM; in experiment [15], 1200 nM; in experiment [16] it was 16800 nM; in experiment [17], 2350 nM; in experiment [19], 1340 nM. In addition, the inhibition result in experiment [6] was “Dose-dependent effect”. Further, the inhibition result in experiment [14] was “inactive”. The Ratio IC50 in experiment [18] was found to be 25.
